Measured values taken from patent EP0874818B1, “NOVEL SUBSTITUTED ARYL COMPOUNDS USEFUL AS MODULATORS OF ACETYLCHOLINE RECEPTORS” (priority 1995, dated 1997).
Like-named read-outs stand apart in the source and are kept apart here. Values belong to the compound of their own block, whether it stands above or below them.

Key:
[1] = target: muscarinic acetylcholine receptors; experiment: 3H-QNB (quinuclidinyl benzilate) displacement, rat cerebral membranes; format: binding; details: read-out: Displacement of Radiolabeled Liqands IC50 Quinuc Benz
rat striatal slices = experiment: 3H-dopamine release from rat striatal slices (superfusion); format: cell-based; details: read-out: % of Nicotine Response 3H-DA Striatum
Procedure: Measurement of ^3H-dopamine (^3H-DA) release from rat striatal slices was performed according to the method of Sacaan et al., (J. Pharmacol. Comp. Ther 224:224-230 (1995)). Male Sprague-Dawley rats (250-300 g) were decapitated and the striata or olfactory tubercles dissected quickly on a cold glass surface. The tissue was chopped to a thickness of 300 µm with a McIlwain tissue chopper. After chopping again at right angles the tissue was dispersed and incubated for 10 min. at 37°C in oxygenated Kreb's buffer. ^3H-Dopamine (40 Ci/mmol, NEN-Dupont, Boston, Ma) was added (50 nM) and the tissue was incubated for 30 min. in Kreb's buffer containing 10 µM pargyline and 0.5 mM ascorbic acid. Aliquots of the minced tissue were then transferred to chambers of a Brandel Superfusion system in which the tissue was supported on Whatman GF/B filter discs. The tissue was then superfused with buffer at a constant flow rate of 0.3 ml/min by means of a Brandel peristaltic pump. The perfusate was collected in plastic scintillation vials in 3-min fractions, and the radioactivity was estimated by scintillation spectrophotometry. The superfusate for the first 120 min was discarded. […] At the end of the experiment the filter and the tissue were removed, and the radiolabeled neurotransmitter content was estimated after extraction into scintillation fluid. The fractional efflux of radiolabeled neurotransmitter was estimated as the amount of radioactivity in the perfusate fraction relative to the total amount in the tissue.
The results presented in the Table are expressed as the percent fractional release.

rat hippocampus = experiment: tissue or blood; format: cell-based; details: read-out: % of Nicotine Response 3H-NE Hippocampus
[2] = tested on: acetylcholine release in the hippocampus; format: in vivo, Male Sprague Dawley Rats
From the text: Male Sprague Dawley Rats (230-290 g) were anesthetized in a chamber saturated with isofluorane. Once immobilized, the rats were mounted in a Kopf stereotaxic apparatus with the incisor bar set at -3.3 mm (Praxinos and Watson, 1986). A midline incision was made on the skull to expose the underlying fascia. The skull was cleaned with an antibacterial preparation containing iodine and a hole was made in the skull at the following coordinates: AP, -3.5 mm and ML, +2.0 mm (Praxinos and Watson, 1986). A stainless steel guide cannula (Small Parts, Inc., Stillwater, FL) was cut to 2.0 mm length and inserted into the hole. Three additional holes were drilled into the skull surrounding the guide cannula and small machine screws were placed into these holes. The guide cannula and screws were secured by dental cement. A dummy cannula was inserted into the guide cannula to prevent clogging. The animals were removed from the stereotaxic frame and single housed for 3-7 days with free access to food and water.
On the day of the experiment, the rats were briefly anesthetized with isofluorane and the dummy cannulae were removed. A microdialysis cannula containing a Loop type probe with a rigid shaft and molecular weight cut-off of 6000 (ESA Inc, Chelmsfold, MA) of approximately 2 mm in length, was inserted into the guide cannula. Under these conditions, the microdialysis probe extended 2 mm beneath the guide cannula. The animal was placed in plastic bowl (CMA 120; CMA Microdialysis, Acton, MA, USA) with a harness around the neck. The microdialysis probe was connected to a syringe pump through which a salt solution representing the ionic concentration of the cerebrospinal fluid (artificial CSF; 145 mM NaCl; […]; […] and […]; pH 7.4; Moghaddam and Bunney, J. Neurochem, 53, 652-654, 1989) containing 100 nM neostigmine was pumped at a rate of 1.5 µL/min.
Twenty minute fractions were collected and automatically injected via a sample loop and an auto-injector. The on-line microdialysis comprised of the following components: a CMA/100 microsyringe pump connected to a CMA/111 syringe selector. The mobile phase (100 mM disodium hydrogen phosphate; 2.0 mM 1-octane sulfonic acid sodium salt; 0.005% reagent MB (ESA Inc., Chelmeford, MA) pH 8.00 with phosphoric acid) was pumped using a model 580 ESA pump through a polymeric reverse phase column (ACH-3, ESA Inc., […]; 3.2 mmx 15 cm). The effluent from the column was passed through an enzyme reactor containing immobilized acetylcholinesterase and choline oxidase (ACH-SPR, ESA Inc.). The HPLC column and the enzyme reactor were placed in a housing with a constant temperature of 35°C. Acetylcholine and choline in microdialysis samples were converted into hydrogen peroxide which was detected by amperometric oxidation in a ESA model 5041 analytical cell containing a glassy carbon target electrode and a palladium reference electrode. The oxidation potential was 250 mV and the signal was detected by a ESA model 5200 A Coulochem detector. The retention times for choline and acetylcholine under these conditions were 4 and 6 min, respectively. The limit of detection for acetylcholine was less than 100 fmol on column.
On the day of the experiment, 10-12 fractions were collected to establish the baseline acetylcholine release. Following the establishment of baseline, rats were injected with the test compound and samples were collected until the levels of acetylcholine in the dialysate samples returned to baseline levels (3-5 hr). Compounds were typically dissolved in saline and the pH of the solution was adjusted by the addition of NaOH.

[3] = 60 pM 3H-QNB, rat cerebral membranes, no atropine
[4] = compound tested at 300 µM, relative to nicotine 10µM
[5] = hippocampal acetylcholine, rat microdialysis, nicotine 0.4 mg/kg, lobeline 5.0 mg/kg, first Formula Z compound 40 mg/kg, other doses not given

- IC50 [1, 3]: > 10000 nM
Structure (SMILES): CN1CCC[C@H]1COC(=O)CCc1ccc(O)cc1 [1-Methvl-2-pyrrolidinemethyl 3-(4-hydroxyphenyl)propionate]

- IC50 [1, 3]: 1120 nM
Structure (SMILES): CN1CCC[C@H]1COC(=O)CCc1ccccc1 [1-Methyl-2-pyrrolidinemethyl 3-phenylpropionate]

- IC50 [1, 3]: 3300 nM
Structure (SMILES): CN1CCCC1CCSc1ccc(O)cc1Cl (stereo not drawn) [2-[2-(2-Chloro-4-hydroxyphenyl)thioethyl]-1-methylpyrrolidine]
- Emax at 300 µM (rat striatal slices; [4]): 800%

- IC50 [1, 3]: 2900 nM
Structure (SMILES): COc1ccc(SCCC2CCCN2C)cc1F (stereo not drawn) [2-[2-(3-Fluoro-4-methoxyphenyl)thioethyl]-1-methylpyrrolidine]
- Emax at 300 µM (rat striatal slices; [4]): 21%

Structure (SMILES): CN1CCCC1CCSc1ccc(O)cc1 (stereo not drawn) [2-[2-(4-Hydroxyphenyl)thioethyl]-1-methylpyrrolidine]
- Emax at 300 µM (rat hippocampus): 32%
- Duration of Increase Above Baseline [2, 5]: 200 min
- Peak Increase, % of Baseline [2, 5]: 2,000 % of Baseline
- IC50 [1]: 1850 nM
- Emax at 300 µM (rat striatal slices): 453%

Structure (SMILES): CN1[C@@H](CC(=O)c2ccccc2)CCC[C@H]1C[C@H](O)c1ccccc1 [Lobeline]
- Duration of Increase Above Baseline [2, 5]: 200 min
- Peak Increase, % of Baseline [2, 5]: 400 % of Baseline

Structure (SMILES): CN1CCCC1c1cccnc1 (stereo not drawn) [Nicotine, reference compound]
- Emax at 300 µM (rat hippocampus): 100%
- Duration of Increase Above Baseline ([2]; rat, in vivo): 200 min
- Peak Increase, % of Baseline ([2]; rat, in vivo): 220 % of Baseline
- Emax at 10 µM (rat striatal slices): 100%

Structure (SMILES): CNC1(C)C2CCC(C2)C1(C)C (stereo not drawn) [mecamylamine]
- attenuation of acetylcholine release induced by compound of Formula Z (A = 4-hydroxyphenyl, B = not present, D = -S-, E = -CH2CH2-, G = 1-methylpyrrolidino) ([2]; rat hippocampus microdialysis, Figure 5): attenuation of acetylcholine release
